In patent US20220202696A1, “AGENT FOR PROMOTING COLLAGEN PRODUCTION, MEDICAMENT, COSMETIC, AND METHOD FOR MANUFACTURING AGENT FOR PROMOTING COLLAGEN PRODUCTION” (Murata Manufacturing Co., Ltd., priority 2019, published 2022):

System: Normal human dermal fibroblasts
Experiment: Type I collagen production in aging induction-treated fibroblasts (ELISA)
Format: cell-based
Details: positive control at 25 μmol/L, 48 hours culture, aging induction-treated cells, ELISA of medium
Experimental: Normal human dermal fibroblasts were maintained using a DMEM medium (+5% FBS) in a culture vessel to confluence. […] After this procedure was repeated once daily for 4 days, the cells were further cultured in DMEM (10% FBS) for 3 days, and the cultured cells were obtained and used as aging induction-treated cells. The aging induction of the cells was confirmed by senescence-associated beta-galactosidase (SA-β-Gal, an aging marker) staining. The aging induction-treated cells were seeded in 48-well plate at a cell density of 5.0×10^4 cells/well using a DMEM medium (+5% FBS). […] Then, the cells were cultured for 48 hours, thereafter the medium was collected, and the amount of type I collagen in the medium was quantified by an ELISA method (direct ELISA using an anti-Human Collagen Type I antibody (Rabbit)).

O=C1O[C@H]([C@@H](O)CO)C(O)=C1O [vitamin C]
production of type I collagen: increased
